pIC50: −log10 of the molar value. Counter-ions that a name gives are not always drawn. Like-named read-outs stand apart in the source and are kept apart here.

The assay has as its target T1, 5-HT1A receptor (Rattus norvegicus, UniProt P19327).
T1 construct: synaptosomal membranes isolated from cerebral cortex; from tissue; host or cells: rat cerebral cortex, crude synaptosomal membranes (male Sprague-Dawley rats, Harlan Industries)
T1 sequence (P19327 1-422): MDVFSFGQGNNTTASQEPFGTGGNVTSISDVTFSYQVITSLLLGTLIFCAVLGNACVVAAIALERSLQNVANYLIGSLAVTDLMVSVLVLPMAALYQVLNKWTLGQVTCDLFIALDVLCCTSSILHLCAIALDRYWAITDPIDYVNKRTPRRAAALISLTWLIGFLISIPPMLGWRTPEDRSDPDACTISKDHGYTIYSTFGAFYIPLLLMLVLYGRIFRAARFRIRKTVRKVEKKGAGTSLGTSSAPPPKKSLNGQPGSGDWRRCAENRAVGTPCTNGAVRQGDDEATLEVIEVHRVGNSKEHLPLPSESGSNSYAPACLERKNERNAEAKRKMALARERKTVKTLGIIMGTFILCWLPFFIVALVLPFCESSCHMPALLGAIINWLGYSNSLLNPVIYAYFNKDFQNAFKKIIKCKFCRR
Nature of the assay: Inhibition of 3H-8-OH-DPAT binding to rat cerebral cortex synaptosomal membranes (binding at 5HT1a in vitro). Details: species or system rat (male Sprague-Dawley). On the procedure:
This general procedure is set forth in Wong et al., J. Neural Transm. 71:207-218 (1988).
Male Sprague-Dawley rats (110-150 g) from Harlan Industries (Cumberland, Ind.) were fed a Purina Chow ad libitum for at least 3 days before being used in the studies. Rats were killed by decapitation. The brains were rapidly removed, and the cerebral cortices were dissected out at 4° C.
Brain tissues were homogenized in 0.32M sucrose. After centrifugation at 1000×g for 10 min and then at 17000×g for 20 min, a crude synaptosomal fraction was sedimented. The pellet was suspended in 100 vol of 50 mM Tris-HCl, pH 7.4, incubated at 37° C. for 10 min, and centrifuged at 50000×g for 10 min. The process was repeated and the final pellet was suspended in ice-chilled 50 mM Tris-HCl, pH 7.4. By the radioligand binding method, sites specifically labeled by tritiated 8-hydroxy-2-dipropylamino-1,2,3,4-tetrahydronaphthalene (^3 H-8-OH-DPAT) have been identified as 5-HT1A receptors.
Binding of (^3 H-8-OH-DPAT) was performed according to the previously described method [Wong et al., J. Neural Transm. 64:251-269 (1985)]. Briefly, synaptosomal membranes isolated from cerebral cortex were incubated at 37° C. for 10 min. in 2 ml of 50 mM Tris-HCl, pH 7.4; 10 μM pargyline; 0.6 mM ascorbic acid; 0.4 nM ^3 H-8-OH-DPAT; and from 1 to 1000 nM of test compound. Binding was terminated by filtering samples under reduced pressure through glass fiber (GFB) filters. The filters were washed twice with 5 ml of ice cold buffer and placed in scintillation vials with 10 ml of PCS (Amersham/Searle) scintillation fluid. Radioactivity was measured with a liquid scintillation spectrometer. Unlabeled 8-OH-DPAT at 10 μM was also included in separate samples to establish non-specific binding. Specific binding of ^3 H-8-OH-DPAT is defined as the difference of radioactivity bound in the absence and in the presence of 10 μM unlabeled 8-OH-DPAT.

Where [1] appears, read: rat cerebral cortex membranes, 0.4 nM 3H-8-OH-DPAT, 37° C., 10 min, pH 7.4, read-out: IC50, concentration of test compound required to inhibit the binding of 3H-8-OH-DPAT by 50%.

As for `CCCCC(=O)c1cccc2c1CC(N(CCC)CCC)CC2` (stereo not drawn) [Example 1, 2-Di-n-propylamino-8-pentanoyl-1,2,3,4-tetrahydronaphthalene, oxalate salt], under setting [1], the pIC50 is 8.66. For `CCCN(CCC)C1CCc2cccc(C(=O)C(F)(F)F)c2C1` (stereo not drawn) [Example 2, 2-Di-n-propylamino-8-trifluoroacetyl-1,2,3,4-tetrahydronaphthalene, hydrobromide salt], the pIC50 under setting [1] was 7.54. On to `CCCN(CCC)C1CCc2cccc(C(=O)CC)c2C1` (stereo not drawn) [Example 3, 2-Di-n-propylamino-8-propionyl-1,2,3,4-tetrahydronaphthalene, oxalate salt], for which the pIC50 under setting [1] is 9.10. Still for that read-out and setting: in the case of `CCCC(=O)c1cccc2c1CC(N(CCC)CCC)CC2` (stereo not drawn) [Example 4, 2-Di-n-propylamino-8-butanoyl-1,2,3,4-tetrahydronaphthalene,hydrobromide salt] it was 8.52; in that of `CCCN(CCC)C1CCc2cccc(C(=O)C(C)C)c2C1` (stereo not drawn) [Example 5, 2-Di-n-propylamino-8-(α-methylpropionyl)-1,2,3,4-tetrahydronaphthalene, hydrobromide salt], 9.40; in that of `CCCN(CCC)C1CCc2cccc(C(=O)CC(C)C)c2C1` (stereo not drawn) [Example 6, 2-Di-n-propylamino-8-(β-methylbutyryl)-1,2,3,4-tetrahydronaphthalene,hydrobromide salt], 9.40. `CCCN(CCC)C1CCc2cccc(C(=O)C(C)(C)C)c2C1` (stereo not drawn) [Example 7, 2-Di-n-propylamino-8-dimethylpropionyl-1,2,3,4-tetrahydronaphthalene, hydrobromide salt] gave a pIC50 of 8.05. In the case of `CCCN(CCC)C1CCc2cccc(C(=O)C3CCCCC3)c2C1` (stereo not drawn) [Example 8, 2-Di-n-propylamino-8-cyclohexanecarbonyl-1,2,3,4-tetrahydronaphthalene, oxalate salt], the pIC50 under setting [1] was 9.30.

Consider `CCCN(CCC)C1CCc2cccc(C(=O)c3ccccc3)c2C1` (stereo not drawn) [Example 9, 2-Di-n-propylamino-8-benzoyl-1,2,3,4-tetrahydronaphthalene, tosylate salt], for which the pIC50 under setting [1] was 8.43. Take `CCCN(CCC)C1CCc2cccc(C(=O)c3ccccc3F)c2C1` (stereo not drawn) [Example 11, 2-Di-n-propylamino-8-(o-fluorobenzoyl)-1,2,3,4-tetrahydronaphthalene, p-toluenesulfonic acid salt]: the pIC50 under setting [1] is 9.10.

For `CCCN(CCC)C1CCc2cccc(C(=O)COC)c2C1` (stereo not drawn) [Example 12, 2-Di-n-propylamino-8-(methoxyacetyl)-1,2,3,4-tetrahydronaphthalene oxalate], the pIC50 under setting [1] was 8.24. Same read-out and setting: in the case of `CCCN(CCC)C1CCc2cccc(C(C)=O)c2C1` (stereo not drawn) [Example 13, 2-Di-n-propylamino-8-acetyl-1,2,3,4-tetrahydronaphthalene] it was 9.10.

The record behind these values is patent US5552444A, “Ring-substituted 2-amino-1,2,3,4-tetra-hydronaphthalenes, 3-aminochromanes, and 3-aminothiochromanes” (Eli Lilly and Company, priority 1995, dated 1996).
